Results as given in ChEMBL document CHEMBL1641526, “Structure-activity relationship (SAR) of the α-amino acid residue of potent tetrahydroisoquinoline (THIQ)-derived LFA-1/ICAM-1 antagonists” (Bioorg Med Chem Lett, 2011).

Legend:
[1] = target: T1, Intercellular adhesion molecule (ICAM-1), Integrin alpha-L/beta-2 (Homo sapiens, UniProt P05107+P05362+P20701); assay: Inhibition of LFA1/ICAM1 interaction in human Hut-78 cells in presence of 10% human serum; format: cell-based
[2] = target: T1, Intercellular adhesion molecule (ICAM-1), Integrin alpha-L/beta-2; assay: Inhibition of LFA1/ICAM1 interaction in human Hut-78 cells; format: cell-based
[3] = Half life in Sprague-Dawley rat at 5 mg/kg administered as single dose; format: ADME, organism-based; design: dose 5 mg/kg; settings: in vivo
[4] = Clearance in Sprague-Dawley rat at 5 mg/kg administered as single dose; format: ADME, organism-based; design: dose 5 mg/kg; settings: in vivo
[5] = AUC in Sprague-Dawley rat at 5 mg/kg administered as single dose; format: ADME, organism-based; design: dose 5 mg/kg; settings: plasma
[6] = Metabolic stability in human liver microsomes after 30 mins by LC/MS analysis; format: ADME, Microsome; settings: read-out: Stability
[7] = Metabolic stability in Sprague-Dawley rat liver microsomes after 30 mins by LC/MS analysis; format: ADME, Microsome; settings: read-out: Stability

T1 sequence (P20701 whole entry): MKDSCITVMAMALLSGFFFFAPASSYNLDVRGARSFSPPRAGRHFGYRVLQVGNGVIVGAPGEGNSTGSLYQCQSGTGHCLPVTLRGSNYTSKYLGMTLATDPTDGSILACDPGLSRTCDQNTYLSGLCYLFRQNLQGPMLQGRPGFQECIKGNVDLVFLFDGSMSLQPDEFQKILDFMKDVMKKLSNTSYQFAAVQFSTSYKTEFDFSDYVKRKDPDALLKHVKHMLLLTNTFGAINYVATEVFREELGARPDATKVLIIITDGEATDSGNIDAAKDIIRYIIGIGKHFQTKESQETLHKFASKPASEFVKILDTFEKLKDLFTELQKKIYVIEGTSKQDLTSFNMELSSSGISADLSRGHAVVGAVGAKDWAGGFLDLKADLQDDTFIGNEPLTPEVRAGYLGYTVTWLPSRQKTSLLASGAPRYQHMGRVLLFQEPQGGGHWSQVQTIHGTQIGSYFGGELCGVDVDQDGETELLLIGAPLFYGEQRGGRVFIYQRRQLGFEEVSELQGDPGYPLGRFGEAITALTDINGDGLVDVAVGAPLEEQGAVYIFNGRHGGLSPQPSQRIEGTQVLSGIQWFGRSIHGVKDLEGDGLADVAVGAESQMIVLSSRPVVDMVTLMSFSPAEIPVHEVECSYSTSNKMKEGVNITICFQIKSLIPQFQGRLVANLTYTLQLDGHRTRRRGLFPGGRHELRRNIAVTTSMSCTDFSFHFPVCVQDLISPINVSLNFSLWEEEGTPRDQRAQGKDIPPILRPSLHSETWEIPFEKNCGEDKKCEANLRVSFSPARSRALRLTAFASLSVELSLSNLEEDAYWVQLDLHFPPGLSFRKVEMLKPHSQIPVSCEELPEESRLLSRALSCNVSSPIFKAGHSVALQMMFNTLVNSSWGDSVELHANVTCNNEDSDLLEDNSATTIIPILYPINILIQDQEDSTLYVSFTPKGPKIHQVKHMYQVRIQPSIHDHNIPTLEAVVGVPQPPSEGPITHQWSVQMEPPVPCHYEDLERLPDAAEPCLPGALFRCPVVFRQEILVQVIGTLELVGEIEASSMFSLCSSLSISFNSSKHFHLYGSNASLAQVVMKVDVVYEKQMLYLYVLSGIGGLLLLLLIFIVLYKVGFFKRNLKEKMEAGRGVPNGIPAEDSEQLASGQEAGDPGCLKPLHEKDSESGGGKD
T1 sequence (P05362 whole entry): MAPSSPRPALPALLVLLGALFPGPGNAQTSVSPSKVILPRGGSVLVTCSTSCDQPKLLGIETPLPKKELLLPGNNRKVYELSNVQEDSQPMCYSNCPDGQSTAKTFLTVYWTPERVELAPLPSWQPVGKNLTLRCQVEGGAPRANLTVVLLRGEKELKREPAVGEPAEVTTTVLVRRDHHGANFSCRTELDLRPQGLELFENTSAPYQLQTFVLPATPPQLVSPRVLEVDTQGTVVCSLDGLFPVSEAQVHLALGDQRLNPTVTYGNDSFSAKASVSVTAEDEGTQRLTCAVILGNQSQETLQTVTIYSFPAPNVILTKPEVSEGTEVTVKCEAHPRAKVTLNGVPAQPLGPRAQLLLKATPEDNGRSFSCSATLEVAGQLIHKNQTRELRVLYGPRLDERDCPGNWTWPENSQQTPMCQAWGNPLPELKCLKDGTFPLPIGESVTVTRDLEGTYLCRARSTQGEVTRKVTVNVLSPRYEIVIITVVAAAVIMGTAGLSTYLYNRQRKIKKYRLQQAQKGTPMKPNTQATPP
T1 sequence (P05107 whole entry): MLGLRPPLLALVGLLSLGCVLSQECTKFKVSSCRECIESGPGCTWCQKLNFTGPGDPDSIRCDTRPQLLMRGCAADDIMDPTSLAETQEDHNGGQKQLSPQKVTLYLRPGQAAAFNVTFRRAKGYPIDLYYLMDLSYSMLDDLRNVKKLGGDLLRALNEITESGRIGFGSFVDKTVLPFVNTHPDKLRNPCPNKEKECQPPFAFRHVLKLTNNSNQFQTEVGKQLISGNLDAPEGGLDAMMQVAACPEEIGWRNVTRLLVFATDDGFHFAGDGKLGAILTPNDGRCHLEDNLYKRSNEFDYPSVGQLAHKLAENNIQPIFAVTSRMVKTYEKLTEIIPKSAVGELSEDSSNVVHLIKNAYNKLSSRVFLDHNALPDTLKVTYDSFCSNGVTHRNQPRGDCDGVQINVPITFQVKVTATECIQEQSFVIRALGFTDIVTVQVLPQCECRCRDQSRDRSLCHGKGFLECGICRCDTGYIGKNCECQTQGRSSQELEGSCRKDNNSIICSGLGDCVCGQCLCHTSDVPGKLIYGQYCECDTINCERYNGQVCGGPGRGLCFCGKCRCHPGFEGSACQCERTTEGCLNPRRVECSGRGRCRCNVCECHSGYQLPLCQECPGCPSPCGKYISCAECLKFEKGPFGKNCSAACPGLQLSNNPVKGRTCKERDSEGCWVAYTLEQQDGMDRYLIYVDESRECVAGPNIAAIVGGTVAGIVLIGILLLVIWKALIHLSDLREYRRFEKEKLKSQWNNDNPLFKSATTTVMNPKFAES

O=C(NC[C@H](NC(=O)c1c(Cl)cc2c(c1Cl)CCN(C(=O)c1ccc(Cl)cc1)C2)C(=O)O)c1cccs1
IC50 [1]: 1.5 µM

O=C(NC[C@H](NC(=O)c1c(Cl)cc2c(c1Cl)CCN(C(=O)c1ccc3ccoc3c1)C2)C(=O)O)c1cccs1
IC50 [2]: 0.005 µM | IC50 [1]: 0.95 µM

CCOC(=O)[C@H](CNC(=O)c1cccs1)NC(=O)c1c(Cl)cc2c(c1Cl)CCN(C(=O)c1ccc3ccoc3c1)C2
IC50 [1]: 0.95 µM

CS(=O)(=O)c1ncc(C[C@H](NC(=O)c2c(Cl)cc3c(c2Cl)CCN(C(=O)c2ccc4ccoc4c2)C3)C(=O)O)[nH]1
IC50 [2]: 0.03 µM | IC50 [1]: 0.56 µM

CC(=O)n1cc(C[C@H](NC(=O)c2c(Cl)cc3c(c2Cl)CCN(C(=O)c2ccc(Cl)cc2)C3)C(=O)O)c2ccccc21
IC50 [2]: 0.82 µM

CS(=O)(=O)n1cc(C[C@H](NC(=O)c2c(Cl)cc3c(c2Cl)CCN(C(=O)c2ccc(Cl)cc2)C3)C(=O)O)c2ccccc21
IC50 [2]: 0.1 µM | IC50 [1]: 25 µM

NS(=O)(=O)n1cc(C[C@H](NC(=O)c2c(Cl)cc3c(c2Cl)CCN(C(=O)c2ccc(Cl)cc2)C3)C(=O)O)c2ccccc21
IC50 [2]: > 1 µM

Cc1cccc2c1c(C[C@H](NC(=O)c1c(Cl)cc3c(c1Cl)CCN(C(=O)c1ccc(Cl)cc1)C3)C(=O)O)cn2S(C)(=O)=O
IC50 [2]: > 1 µM

Cc1ccc2c(c1)c(C[C@H](NC(=O)c1c(Cl)cc3c(c1Cl)CCN(C(=O)c1ccc(Cl)cc1)C3)C(=O)O)cn2S(C)(=O)=O
IC50 [2]: 0.026 µM | IC50 [1]: 11 µM

Cc1ccc2c(C[C@H](NC(=O)c3c(Cl)cc4c(c3Cl)CCN(C(=O)c3ccc(Cl)cc3)C4)C(=O)O)cn(S(C)(=O)=O)c2c1
IC50 [2]: 0.039 µM | IC50 [1]: 25 µM

Cc1cccc2c(C[C@H](NC(=O)c3c(Cl)cc4c(c3Cl)CCN(C(=O)c3ccc(Cl)cc3)C4)C(=O)O)cn(S(C)(=O)=O)c12
IC50 [2]: 0.14 µM | IC50 [1]: 25 µM

O=C(N[C@@H](Cc1c[nH]cn1)C(=O)O)c1c(Cl)cc2c(c1Cl)CCN(C(=O)c1ccc(Cl)cc1)C2
IC50 [2]: 0.43 µM

Cn1cnc(C[C@H](NC(=O)c2c(Cl)cc3c(c2Cl)CCN(C(=O)c2ccc(Cl)cc2)C3)C(=O)O)c1
IC50 [2]: 0.56 µM

CC(C)n1cnc(C[C@H](NC(=O)c2c(Cl)cc3c(c2Cl)CCN(C(=O)c2ccc(Cl)cc2)C3)C(=O)O)c1
IC50 [2]: 0.17 µM

O=C(N[C@@H](Cc1cn(-c2ccccc2)cn1)C(=O)O)c1c(Cl)cc2c(c1Cl)CCN(C(=O)c1ccc(Cl)cc1)C2
IC50 [2]: > 1 µM

CC(C)n1cc(C[C@H](NC(=O)c2c(Cl)cc3c(c2Cl)CCN(C(=O)c2ccc(Cl)cc2)C3)C(=O)O)nn1
IC50 [2]: 0.059 µM | IC50 [1]: 1 µM | half-life [3]: 138 min | clearance [4]: > 3.6 L/h/kg | AUC [5]: 1.41 µg·h/mL | remaining at 0.5 h [6]: 92%

CC(C)c1cn(C[C@H](NC(=O)c2c(Cl)cc3c(c2Cl)CCN(C(=O)c2ccc(Cl)cc2)C3)C(=O)O)nn1
IC50 [2]: 0.31 µM

CC(C)c1cc(C[C@H](NC(=O)c2c(Cl)cc3c(c2Cl)CCN(C(=O)c2ccc(Cl)cc2)C3)C(=O)O)[nH]n1
IC50 [2]: 0.25 µM

CC(C)c1cnc(C[C@H](NC(=O)c2c(Cl)cc3c(c2Cl)CCN(C(=O)c2ccc(Cl)cc2)C3)C(=O)O)s1
IC50 [2]: > 1 µM

CC(C)n1cc(C[C@H](NC(=O)c2c(Cl)cc3c(c2Cl)CCN(C(=O)c2cc4ccccc4o2)C3)C(=O)O)nn1
IC50 [2]: 0.005 µM | IC50 [1]: 0.19 µM

CC(C)n1cc(C[C@H](NC(=O)c2c(Cl)cc3c(c2Cl)CCN(C(=O)c2ccc4ccoc4c2)C3)C(=O)O)nn1
IC50 [2]: 0.019 µM | IC50 [1]: 0.95 µM | half-life [3]: 58.2 min | clearance [4]: 1.56 L/h/kg | AUC [5]: 3.68 µg·h/mL | remaining at 0.5 h [6]: 86% | remaining at 0.5 h [7]: > 95%

CC(C)n1cc(C[C@H](NC(=O)c2c(Cl)cc3c(c2Cl)CCN(C(=O)c2cc4ccccn4n2)C3)C(=O)O)nn1
IC50 [2]: 0.007 µM | IC50 [1]: 0.26 µM

CS(=O)(=O)c1ccc(C[C@H](NC(=O)c2c(Cl)cc3c(c2Cl)CCN(C(=O)c2ccc4ccoc4c2)C3)C(=O)O)o1
IC50 [2]: 0.0012 µM | IC50 [1]: 0.096 µM | half-life [3]: 25.8 min | clearance [4]: 3.6 L/h/kg | AUC [5]: 1.51 µg·h/mL | remaining at 0.5 h [6]: > 95% | remaining at 0.5 h [7]: > 65%

CS(=O)(=O)c1ccc(C[C@H](NC(=O)c2c(Cl)cc3c(c2Cl)CCN(C(=O)c2ccc4ccoc4c2)C3)C(=O)O)s1
IC50 [2]: 0.15 µM

CS(=O)(=O)N1CCC(C[C@H](NC(=O)c2c(Cl)cc3c(c2Cl)CCN(C(=O)c2ccc4ccoc4c2)C3)C(=O)O)C1 (stereo not given in full)
IC50 [2]: 1 µM
